Calls of active or inactive are those of the source. The rule behind the calls is not given here.
What was measured:
[1] = molecular target: T1, Galectin-8 (Homo sapiens, UniProt O00214); test: Binding affinity to human galactin-8 N terminal domain assessed as dissociation constant by competitive fluorescence polarization assay
T1 sequence (O00214 whole entry): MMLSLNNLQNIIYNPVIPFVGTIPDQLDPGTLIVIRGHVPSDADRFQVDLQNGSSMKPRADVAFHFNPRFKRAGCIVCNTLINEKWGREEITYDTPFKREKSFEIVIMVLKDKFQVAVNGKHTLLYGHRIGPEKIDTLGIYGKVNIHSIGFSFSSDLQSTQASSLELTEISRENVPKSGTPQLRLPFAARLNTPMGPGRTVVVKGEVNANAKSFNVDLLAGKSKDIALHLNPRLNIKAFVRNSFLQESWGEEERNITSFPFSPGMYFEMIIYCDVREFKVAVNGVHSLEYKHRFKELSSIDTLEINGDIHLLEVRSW

[2] = molecular target: T2, Galectin-3 (Homo sapiens, UniProt P17931); test: Binding affinity to human galactin-3 assessed as dissociation constant by competitive fluorescence polarization assay
[3] = molecular target: T3, Galectin-8 (Homo sapiens) (UniProt O00214); test: Binding affinity to human galactin-8 N terminal domain assessed as dissociation constant at 1500 uM by competitive fluorescence polarization assay
T3 sequence (whole entry): T1 sequence (O00214 whole entry)

[4] = organism: Homo sapiens; test: Selectivity ratio of Kd for binding affinity to human galactin-8 N terminal domain to Kd for binding affinity to human galactin-3
[5] = molecular target: T4, Galectin-9 (Homo sapiens, UniProt O00182); test: Binding affinity to human galactin-9 N terminal domain assessed as dissociation constant by competitive fluorescence polarization assay
[6] = organism: Homo sapiens; test: Selectivity ratio of Kd for binding affinity to human galactin-9 N terminal domain to binding affinity to human galactin-8 N terminal domain
[7] = molecular target: T1, Galectin-8; test: Binding affinity to human galactin-8 C terminal domain assessed as dissociation constant by competitive fluorescence polarization assay
[8] = molecular target: T5, Galectin-2 (Homo sapiens, UniProt P05162); test: Binding affinity to human galactin-2 assessed as dissociation constant by competitive fluorescence polarization assay
T5 sequence (P05162 whole entry): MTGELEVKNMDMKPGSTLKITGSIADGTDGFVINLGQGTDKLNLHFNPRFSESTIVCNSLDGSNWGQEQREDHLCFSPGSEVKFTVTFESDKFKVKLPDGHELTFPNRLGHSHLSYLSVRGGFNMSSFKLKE

[9] = molecular target: T6, Galectin-4 (Homo sapiens, UniProt P56470); test: Binding affinity to human galactin-4 N terminal domain assessed as dissociation constant by competitive fluorescence polarization assay
T6 sequence (P56470 whole entry): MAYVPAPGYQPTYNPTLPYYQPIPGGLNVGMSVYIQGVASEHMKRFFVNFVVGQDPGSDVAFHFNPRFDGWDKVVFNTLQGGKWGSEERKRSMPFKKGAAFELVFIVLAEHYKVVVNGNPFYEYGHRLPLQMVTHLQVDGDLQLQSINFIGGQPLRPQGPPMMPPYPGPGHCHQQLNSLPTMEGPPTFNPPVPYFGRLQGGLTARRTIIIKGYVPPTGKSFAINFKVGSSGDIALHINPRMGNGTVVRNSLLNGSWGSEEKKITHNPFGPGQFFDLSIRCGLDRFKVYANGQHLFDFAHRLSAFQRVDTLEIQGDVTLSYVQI

[10] = molecular target: T6, Galectin-4; test: Binding affinity to human galactin-4 C terminal domain assessed as dissociation constant by competitive fluorescence polarization assay
[11] = molecular target: Galectin-1 (Homo sapiens, UniProt P09382); test: Binding affinity to human galactin-1 assessed as dissociation constant by competitive fluorescence polarization assay
[12] = molecular target: Galectin-7 (Homo sapiens, UniProt P47929); test: Binding affinity to human galactin-7 assessed as dissociation constant by competitive fluorescence polarization assay
[13] = molecular target: T4, Galectin-9; test: Binding affinity to human galactin-9 C terminal domain assessed as dissociation constant by competitive fluorescence polarization assay
[14] = molecular target: T2, Galectin-3; test: Binding affinity to human galactin-3 assessed as dissociation constant at 1500 uM by competitive fluorescence polarization assay
[15] = molecular target: T1, Galectin-8; test: Binding affinity to galectin-8 N-terminal domain (unknown origin)
[16] = molecular target: T2, Galectin-3; test: Binding affinity to galectin-3 (unknown origin)
[17] = organism: Homo sapiens; test: Selectivity ratio of Kd for binding affinity to human galactin-9 C terminal domain to binding affinity to human galactin-8 N terminal domain

T2 sequence (P17931 whole entry, the tested form may be a part): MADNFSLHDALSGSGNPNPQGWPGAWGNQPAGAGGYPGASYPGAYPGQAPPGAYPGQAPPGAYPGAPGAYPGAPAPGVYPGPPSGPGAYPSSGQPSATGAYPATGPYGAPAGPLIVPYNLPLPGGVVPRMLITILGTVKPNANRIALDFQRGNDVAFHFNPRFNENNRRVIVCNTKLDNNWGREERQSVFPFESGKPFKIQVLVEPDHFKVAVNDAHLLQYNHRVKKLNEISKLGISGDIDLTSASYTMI
T4 sequence (O00182 whole entry, the tested form may be a part): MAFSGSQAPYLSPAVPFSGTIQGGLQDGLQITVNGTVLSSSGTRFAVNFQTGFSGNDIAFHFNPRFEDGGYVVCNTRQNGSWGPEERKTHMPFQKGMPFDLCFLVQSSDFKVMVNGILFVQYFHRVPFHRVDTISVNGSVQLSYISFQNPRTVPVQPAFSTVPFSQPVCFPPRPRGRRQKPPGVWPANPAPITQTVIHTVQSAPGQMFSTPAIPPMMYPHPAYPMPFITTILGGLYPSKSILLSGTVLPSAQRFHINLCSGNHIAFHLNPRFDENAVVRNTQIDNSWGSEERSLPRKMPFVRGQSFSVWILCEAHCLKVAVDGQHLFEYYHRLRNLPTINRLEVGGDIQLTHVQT
Galectin-1, sequence (P09382 whole entry): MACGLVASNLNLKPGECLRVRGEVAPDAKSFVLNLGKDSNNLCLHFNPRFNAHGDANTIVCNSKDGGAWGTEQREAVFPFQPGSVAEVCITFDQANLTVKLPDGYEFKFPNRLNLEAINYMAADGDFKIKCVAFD
Galectin-7, sequence (P47929 whole entry, the tested form may be a part): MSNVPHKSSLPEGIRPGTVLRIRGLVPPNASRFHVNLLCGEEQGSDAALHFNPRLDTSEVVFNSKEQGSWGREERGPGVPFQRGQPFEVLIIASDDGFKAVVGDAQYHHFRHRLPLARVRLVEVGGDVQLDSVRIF

SMILES: CO[C@@H]1O[C@H](CO)[C@H](O)[C@H](OCc2nc3ccccc3o2)[C@H]1O
- Kd [1]: 1600 µM
- Kd [2]: 620 µM

SMILES: COC(=O)c1ccc2nc(CO[C@H]3[C@@H](O)[C@@H](CO)O[C@@H](OC)[C@@H]3O)[nH]c2c1
- Kd [1]: 1200 µM
- Kd [2]: 1600 µM

SMILES: CO[C@@H]1O[C@H](CO)[C@H](O)[C@H](OCc2cn(-c3cccc(C(=O)O)c3)nn2)[C@H]1O
- Kd [1]: 640 µM
- Kd [2]: 500 µM

SMILES: CO[C@@H]1O[C@H](CO)[C@H](O)[C@H](OCc2cn(-c3ccccc3C(=O)O)nn2)[C@H]1O
- Activity [3]: inactive
- Kd [2]: 470 µM

SMILES: CCOC(=O)c1ccc2c(c1)nc(CO[C@H]1[C@@H](O)[C@@H](CO)O[C@@H](OC)[C@@H]1O)n2C
- Kd [1]: 1600 µM
- Kd [2]: 2000 µM

SMILES: Cn1c(CO[C@@H]2[C@@H](O)[C@@H](Sc3ccc(Cl)c(Cl)c3)O[C@H](CO)[C@@H]2O)nc2ccc(C(=O)O)cc21
- Kd [1]: 1.8 µM
- Selectivity ratio [4]: 25
- Kd [5]: 16 µM
- Selectivity ratio [6]: 25
- Kd [7]: 760 µM
- Kd [8]: 220 µM
- Kd [9]: 130 µM
- Kd [10]: 120 µM
- Kd [11]: 130 µM
- Kd [12]: 190 µM
- Kd [13]: 45 µM
- Kd [2]: 5 µM

SMILES: Cc1ccc(S[C@@H]2O[C@H](CO)[C@H](O)[C@H](OCc3cn(-c4ccc(C(=O)O)cc4)nn3)[C@H]2O)cc1
- Kd [1]: 1500 µM
- Kd [2]: 230 µM

SMILES: COC(=O)c1ccc2nc(CO[C@H]3[C@@H](O)[C@@H](CO)O[C@@H](OC)[C@@H]3O)n(C)c2c1
- Kd [1]: 1100 µM
- Activity [14]: inactive

SMILES: CO[C@@H]1O[C@H](CO)[C@H](O)[C@H](OCc2nc3ccc(C(=O)O)cc3[nH]2)[C@H]1O
- Kd [1]: 310 µM
- Kd [2]: 590 µM

SMILES: Cc1ccc(S[C@@H]2O[C@H](CO)[C@H](O)[C@H](OCc3cn(-c4cccc(C(=O)O)c4)nn3)[C@H]2O)cc1
- Kd [1]: 760 µM
- Kd [2]: 250 µM

SMILES: CO[C@@H]1O[C@H](CO)[C@H](O)[C@H](OCc2nc3cc(C(=O)O)ccc3n2C)[C@H]1O
- Kd [1]: > 2000 µM
- Kd [2]: 1100 µM

SMILES: CO[C@@H]1O[C@H](CO)[C@H](O)[C@H](OCc2ccc3ccccc3n2)[C@H]1O
- Kd [15]: 700 µM
- Kd [16]: 620 µM

SMILES: COC(=O)c1ccccc1-n1cc(CO[C@H]2[C@@H](O)[C@@H](CO)O[C@@H](Sc3ccc(C)cc3)[C@@H]2O)nn1
- Kd [1]: 1100 µM
- Kd [2]: > 2000 µM

SMILES: COC(=O)c1cccc(-n2cc(CO[C@H]3[C@@H](O)[C@@H](CO)O[C@@H](OC)[C@@H]3O)nn2)c1
- Kd [1]: 810 µM
- Kd [2]: 510 µM

SMILES: COC(=O)c1cccc(-n2cc(CO[C@H]3[C@@H](O)[C@@H](CO)O[C@@H](Sc4ccc(C)cc4)[C@@H]3O)nn2)c1
- Kd [1]: 1200 µM
- Kd [2]: 490 µM

SMILES: O=C(O)c1ccc2ccc(CO[C@@H]3[C@@H](O)[C@@H](Sc4ccc(Cl)c(Cl)c4)O[C@H](CO)[C@@H]3O)nc2c1
- Kd [15]: 1.5 µM
- Kd [16]: 1.2 µM

SMILES: COC(=O)c1ccc(-n2cc(CO[C@H]3[C@@H](O)[C@@H](CO)O[C@@H](Sc4ccc(C)cc4)[C@@H]3O)nn2)cc1
- Kd [1]: 940 µM
- Kd [2]: > 2000 µM

SMILES: CO[C@@H]1O[C@H](CO)[C@H](O)[C@H](OCc2cn(-c3ccc(C(=O)O)cc3)nn2)[C@H]1O
- Kd [1]: 1300 µM
- Kd [2]: 190 µM

SMILES: COC(=O)c1ccccc1-n1cc(CO[C@H]2[C@@H](O)[C@@H](CO)O[C@@H](OC)[C@@H]2O)nn1
- Kd [1]: 1400 µM
- Kd [2]: 330 µM

SMILES: CO[C@@H]1O[C@H](CO)[C@H](O)[C@H](OCc2nc3ccccc3[nH]2)[C@H]1O
- Kd [1]: 860 µM
- Kd [2]: 1500 µM

SMILES: CO[C@@H]1O[C@H](CO)[C@H](O)[C@H](OCc2nc3ccccc3s2)[C@H]1O
- Kd [1]: 870 µM
- Kd [2]: 510 µM

SMILES: CO[C@@H]1O[C@H](CO)[C@H](O)[C@H](OCc2ccc3ccc(C(=O)O)cc3n2)[C@H]1O
- Kd [15]: 110 µM
- Kd [16]: 380 µM

SMILES: COC(=O)c1ccc(-n2cc(CO[C@H]3[C@@H](O)[C@@H](CO)O[C@@H](OC)[C@@H]3O)nn2)cc1
- Kd [1]: > 2000 µM
- Kd [2]: 700 µM

SMILES: CO[C@@H]1O[C@H](CO)[C@H](O)[C@H](OCc2nc3ccccc3n2C)[C@H]1O
- Kd [1]: 1200 µM
- Kd [2]: 1600 µM

SMILES: Cc1ccc(S[C@@H]2O[C@H](CO)[C@H](O)[C@H](OCc3cn(-c4ccccc4C(=O)O)nn3)[C@H]2O)cc1
- Kd [1]: 1200 µM
- Kd [2]: 690 µM

SMILES: CO[C@@H]1O[C@H](CO)[C@H](O)[C@H](OCc2nc3ccc(C(=O)O)cc3n2C)[C@H]1O
- Kd [1]: 190 µM
- Selectivity ratio [4]: 7
- Kd [2]: 1400 µM

SMILES: O=C(O)c1ccc2nc(CO[C@@H]3[C@@H](O)[C@@H](Sc4ccc(Cl)c(Cl)c4)O[C@H](CO)[C@@H]3O)[nH]c2c1
- Kd [1]: 2.8 µM
- Selectivity ratio [17]: 9
- Kd [5]: 13 µM
- Selectivity ratio [6]: 5
- Kd [7]: 450 µM
- Kd [8]: 100 µM
- Kd [9]: 78 µM
- Kd [10]: 160 µM
- Kd [11]: 87 µM
- Kd [12]: 43 µM
- Kd [13]: 18 µM
- Kd [2]: 4.1 µM

— ChEMBL document CHEMBL4831499, “Benzimidazole-galactosides bind selectively to the Galectin-8 N-Terminal domain: Structure-based design and optimisation” (Eur J Med Chem, 2021)
